{
  "source": "patent US11673871B2",
  "about": "“Certain (2S)-N-[(1S)-1-cyano-2-phenylethyl]-1,4-oxazepane-2-carboxamides as dipeptidyl peptidase 1 inhibitors” (AstraZeneca AB, priority 2014, dated 2023)",
  "data": [
    {"test": "Test B: In-vitro competitive aortic tissue binding assay", "details": "100 μM compound pre-incubated overnight at 37° C. with rat aortic homogenate, competition with 100 μM [14C] WO2010/128324 Ex. 3", "experimental": "To assist the design of DPP1 inhibitors with a decreased risk of binding to elastin rich tissues, such as the aorta, the in-vitro competitive aortic binding assay disclosed below (Test B) was developed to facilitate the selection process.\nTest B: In-vitro competitive aortic tissue binding assay Aortic homogenate was prepared from the thoracic aortae of Han Wistar rats. Freshly isolated thoracic aortae were frozen, and later thawed and stripped of non-elastic material. […] Homogenate concentration was adjusted to 30 mg/mL in Puck's saline, and aliquots were stored at −80° C. until use. Positive and negative control compounds and test compounds were made up to 100 mM in DMSO, and added to 1 mL aliquots of aortic homogenate in Puck's saline for a final concentration of 100 μM. Homogenate samples were pre-incubated with test compounds at 37° C., rotating, overnight. [^14C]4-Amino-N-[(1S)-1-cyano-2-(4′-cyanobiphenyl-4-yl)ethyl]tetrahydro-2H-pyran-4-carboxamide was then added to all samples to a final concentration of 100 μM, and samples were incubated at 37° C., rotating, for a further 2 h. Protein was precipitated from each sample by the addition of 10 mL acetone, pre-chilled to −20° C. Samples were left overnight at −20° C. to allow complete precipitation. Precipitate was pelleted by centrifugation at 4,500×g at 4° C. for 20 min, an aliquot of supernatant was removed for analysis, and the remainder of the supernatant discarded. Precipitate was washed by resuspension in 10 mL 80% methanol in distilled water, and re-pelleted by centrifugation at 4,500×g at 4° C. for 20 min. […] After final wash, precipitate was air-dried, and dissolved overnight in 1 mL NCSII Tissue Solubiliser. 1 mL aliquots of supernatants were added to 5 mL Ultima Gold scintillation fluid (Perkin Elmer, MA, U.S.A.), and 1 mL solubilised pellets were added to 5 mL Hionic-Fluor scintillation fluid (Perkin Elmer, MA, U.S.A.). Radioactivity of samples was determined on a Beckman LS6500 multipurpose scintillation counter (Beckman Coulter, IN, U.S.A.). […] Duplicate samples were tested for each compound on each experimental occasion, and at least two experiments were run for each test compound. […] 1-way ANOVA and Bonferroni's multiple comparison tests were performed to calculate significance of differences from vehicle control.", "values": [
      {"smiles": "Cn1c(=O)oc2ccc(-c3ccc(C[C@@H](C#N)NC(=O)[C@@H]4CNCCCO4)cc3)cc21", "note": "[Example 2, (2S)-N-{(1S)-1-Cyano-2-[4-(3-methyl-2-oxo-2,3-dihydro-1,3-benzoxazol-5-yl)phenyl]ethyl}-1,4-oxazepane-2-carboxamide]", "Aortic Tissue Binding": "No binder"},
      {"smiles": "N#Cc1ccc(-c2ccc(C[C@@H](C#N)NC(=O)[C@@H]3CCCCN3)cc2)cc1", "note": "[WO2009/074829 (Example 24)]", "Aortic Tissue Binding": "Binder"},
      {"smiles": "Cn1c(=O)oc2ccc(-c3ccc(C[C@@H](C#N)NC(=O)[C@@H]4CCCCN4)cc3)cc21", "note": "[WO2009/074829 (Example 96)]", "Aortic Tissue Binding": "Medium binder"},
      {"smiles": "N#Cc1ccc(-c2ccc(C[C@@H](C#N)NC(=O)C3(N)CCOCC3)cc2)cc1", "note": "[WO2010/128324 (Ex. 3), 4-amino-N-[(1S)-1-cyano-2-(4′-cyanobiphenyl-4-yl)ethyl]tetrahydro-2H-pyran-4-carboxamide]", "Aortic Tissue Binding": "Strong binder (reference)"},
      {"smiles": "Cn1c(=O)oc2ccc(-c3ccc(C[C@@H](C#N)NC(=O)C4(N)CCOCC4)cc3)cc21", "note": "[WO2010/128324 (Example 17)]", "Aortic Tissue Binding": "Strong binder"}
    ]}
  ]
}
